# Key:
# Rsp5 = target: T1, Rsp5 (Saccharomyces cerevisiae, UniProt P39940); test: Back-Scattering Interferometry (BSI) binding to recombinant Rsp5; conditions: for Kd: 100 nM Rsp5, one-site saturation binding model, read-out: dissociation constant (Kd) for binding to Rsp5
# T1 sequence (P39940 431-809 limits assumed): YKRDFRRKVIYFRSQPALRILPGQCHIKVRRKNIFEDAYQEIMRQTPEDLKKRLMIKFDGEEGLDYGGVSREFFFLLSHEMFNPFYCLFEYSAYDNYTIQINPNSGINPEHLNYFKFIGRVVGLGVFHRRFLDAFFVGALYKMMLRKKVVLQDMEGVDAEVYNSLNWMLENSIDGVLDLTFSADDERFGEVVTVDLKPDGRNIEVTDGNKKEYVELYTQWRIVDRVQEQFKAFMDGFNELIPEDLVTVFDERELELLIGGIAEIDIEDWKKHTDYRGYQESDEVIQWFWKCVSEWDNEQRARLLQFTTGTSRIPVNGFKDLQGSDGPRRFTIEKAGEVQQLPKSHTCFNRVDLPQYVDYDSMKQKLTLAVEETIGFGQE
# Protocol: Sample Preparation of Rsp5 Target: Rsp5 was supplied in 15 μL aliquots of 100 μM (25 mM HEPES pH 7.5, 200 mM NaCl, 5 mM DTT) by St. Jude Research Hospital (Memphis, Tenn.) and was stored at −80° C. Immediately prior to assays fresh aliquots were thawed and diluted in 25 mM HEPES, pH 7.5, 200 mM NaCl, 1 mM DTT, 0.005% pluronic acid and 1% DMSO. The final Rsp5 concentration in the binding assay was 100 nM.
# Sample Preparation of compounds (ligands): The compounds were received as solids and reconstituted to either 40 or 20 mM in 100% DMSO and stored at −80° C. in single use aliquots. The final concentration of each ligand in an assay was 50 μM with a 2× serial dilution to create a 12-point curve.
# The assay buffer was 25 mM HEPES, pH 7.5, 200 mM NaCl, 1 mM DTT, 0.005% pluronic acid, 1% DMSO. The assay was run in Eppendorf 96-well PCR microplates. 55 μL of either Rsp5 or buffer (as control) were added to a each well. To these wells were added 55 μL of the compound dilution. A reference channel containing only buffer was setup as well for thermal compensation during assay measurements. The plates were heat sealed with foil and the assay plates were allowed to incubate at room temperature for 2 hours. Wells were pierced individually prior to sample injection and measurement of BSI signal (each well analyzed in duplicate). The assays were run using a glass microfluidic chip with a proprietary surface treatment on TruBind™ 100 system.
# The BSI signal was expressed as the magnitude of the spatial shift of the fringe pattern on a CMOS camera, measured in milliradians. The control signal was subtracted from assay signal for each compound dilution point. The resulting values were re-zeroed and analyzed with the GraphPad Prism program. The dissociation constant (Kd) was derived from non-linear least-squares fitting of the data using the one-site saturation binding model. The goodness of fit was judged by the calculated R^2 value. The difference and control curves for at least two successful assays were averaged. The resulting average difference curve was used to calculate the reported Kd value for each compound.
# Sna3-GFP [1] = test: Sna3-GFP trafficking to the vacuole (Western blot, GFP cleavage); type: cell-based, yeast; conditions: for ratio of Sna3-GFP to free GFP: 10 μM, FIGS. 16A-16F, within the compound series; for Sna3-GFP trafficking to the vacuole (in words): galactose 5 hours, FIGS. 15B-15F
# Protocol: Log phase CsmRaf cultures of WT tagged Sna3-GFP cells were shifted to galactose for 5 hours in the presence or absence of the compounds. Cell pellets were lysed in SDS-loading dye and Sna3-GFP cleavage monitored by Western blotting with an anti-GFP antibody. Log phase CsmRaf cultures of WT or α-syn yeast were shifted to galactose for 5 hours in the presence or absence of the compounds at which point they were then prepared for Western blot analysis. FIGS. 15B-15F show Western blot analyses of Sna3-GFP for various compounds.
# Ratio of the intact Sna3-GFP to cleaved GFP was calculated for each of the conditions as a readout for efficiency of trafficking of the Sna3-GFP molecule to the vacuole. Polyubiquitination of Sna3-GFP was used as a readout for the intermediate step at the multivesicular body. Image Studio software was used to determine the intensities of the bands, based on linear interpolation of the mean signal intensities from each of the areas of interest and ratios were subsequently calculated in Microsoft Excel and plotted according to the compound series as shown in FIGS. 16A-16F. In the ‘32’ series of analogs, the ratio of Sna3-GFP to free GFP varied among the analogs, with DES-2179 having the lowest ratio of Sna3-GFP to free GFP and DES-2866 having the highest ratio (FIG. 16A). In the ‘91’ series of analogs, the ratio of Sna3-GFP to free GFP varied among the analogs, but less so than for the ‘32’ series (FIG. 16B). In the ‘4117’ series of analogs, the ratio of Sna3-GFP to free GFP was lowest for DES-5212 (FIG. 16C). […] In the ‘28’ series of analogs, DES-2817 had the lowest ratio of Sna3-GFP to free GFP (FIG. 16F). The other compounds in the ‘28’ series had ratios between ˜0.5 and 1.0 (FIG. 16F). In the ‘37’ series of analogs, the ratio of Sna3-GFP to free GFP was greatest for DES-2926 (FIG. 16F).
# [2] = tested on: α-synuclein-expressing yeast; test: α-synuclein toxicity rescue in yeast (growth, OD600); type: cell-based; conditions: for rescue of aSyn toxicity in yeast (in words): FIGS. 8A-8B
# Protocol: Yeast Strains and culturing: Yeast strains expressing alpha-synuclein have been described in Cooper at. al, 2006. (Cooper A A, et al. Alpha-synuclein blocks ER-Golgi traffic and Rab1 rescues neuron loss in Parkinson's models. Science. 2006 Jul. 21; 313:324) Strains express multiple copies of alpha-synculein for galactose-inducible expression. […] Yeast were cultured in complete synthetic media (CSM) and an appropriate dropout (lacking histidine or uracil) to maintain plasmids if required. For galactose-induction experiments, overnight cultures were grown in CSM/2% glucose to saturation and diluted 1:20 into CSM/2% raffinose for ˜2 generations. Cultures were then diluted into CSM/2% galactose at an optimum OD600 for the experiment (see ‘Growth assays’).
# Yeast Growth assays: Starting cultures for all dose-response assays were based on strains initially constructed in the lab to maintain homogeneity across experiments. All growth assays were carried out in 384 well format. Source plates were assembled in 96 well plates using multichannel pipettes to dilute rows in 1.6-fold serial dilutions of CSMGal. To these dilution series containing 2× final concentration of compound, 2×OD600 culture (in CSMGal) was dispensed with a multichannel pipette to achieve a final drug/culture mix with the desired OD600 and drug concentration. For WT yeast, the final starting OD600 was 0.01. For α-syn, the final starting OD600 was 0.02. Drug concentration ranges varied depending on efficacy, growth inhibition, and solubility in media. A Tecan EvoFreedom liquid handling robot was then used to transfer culture from 96 to 384 well format with each well being represented four times. Final well volume was 35 μL. Plates were then incubated in humidified containers at 30° C. for either 24 or 40 hours. Plates were then read with a Tecan Saphire plate reader at OD600.
# Raw OD600 values were transformed to “Relative Growth” in WT cells or “% Maximum Rescue” in α-syn experiments. In WT cells, the well background was subtracted and all values were then normalized to 100% for the untreated condition. In α-syn rescue experiments, the well background was subtracted and the maximum rescue in the particular experiment was normalized to 100%.
# Sna3-GFP [3] = test: Immunoblot analysis of Sna3-GFP polyubiquitination in WT and α-syn cells; type: cell-based, yeast; conditions: FIG. 11B
# Protocol: (§1) Protein analysis was performed in NoTox and HiTox strains with the compound treatment at indicated concentrations. Log phase CSM/2% raffinose cultures were induced with 2% galactose for 5 hours with DMSO or the compounds. Cultures were normalized to cell density and cell pellets prepared for SDS-PAGE. Cell pellets were boiled in SDS-loading dye for 15′, centrifuged, and resolved by 4-12% SDS-PAGE. CPY western blots were performed using culture conditions as described above. An anti-Cpy antibody (Invitrogen, A6428) was used at 1:5,000. Post-ER:ER ratios were quantitated using an IRDye800 secondary antibody (Li-Cor Odyssey, Rockland Immunochemicals) and scanned with the Li-Cor Odyssey imaging system. Significance was determined using a one-way ANOVA and Tukey's test of significance. From the same gel, total protein was detected by coomassie staining. Both blots and coomassie-stained gels were scanned using the Li-Cor Odyssey imaging system and quantitated. Significance was determined using a one-way ANOVA with Tukey's test of significance.
# In WT Sna3-GFP cells, log phase CSMRaf cultures were shifted to galactose for 5 hours in the presence or absence of the compounds. Cell pellets were lysed in SDS-loading dye and Sna3-GFP cleavage monitored by Western blotting with an anti-GFP antibody. […]
# [4] = tested on: K63 linkages in iPS derived human neurons; test: K63-Ub linkages in human iPS derived neuronal cultures (immunoblot); type: cell-based
# Protocol: Human HEK-293 or neuronal cells treated with the appropriate compounds, were washed twice with ice cold PBS and then 0.5 ml of Lysis buffer was added and cells were scraped off the 10 cm dish (1 ml for 15 cm).
# Lysis buffer is 50 mM Tris/HCl pH 7.5, 1 mM EGTA, 1 mM EDTA, 0.5 or 1% (v/v) NP-40, 1 mM sodium orthovanadate, 50 mM NaF, 5 mM sodium pyrophosphate, 0.27 M sucrose, 10 mM sodium 2-glycerophosphate, 0.2 mM phenylmethylsulphonyl fluoride, 1 mM benzamidine, plus 100 mM iodoacetamide added fresh prior to lysis (weight powder, don't use a frozen stock solution) to inactivate deubiquitylase activities and add also pepstatin/aprotinin to inhibit proteases. Cell extracts were sonicated twice for 15 seconds each time and clarified by centrifugation at 14000 g for 15 min at 4° C. Supernatants were collected and filtered using a 0.45 uM MiniSart/Syringe. Next, protein concentrations were determined by Bradford procedure.
# The avidity based K63 linkage sensor protein was based on Sims et. al, 2012. Briefly, avidity based K63 sensor Halo-fusion protein was expressed in an E. coli expression vector and covalently bound to Halo-tag beads [Magne® HaloTag® Beads, 20% Slurry; Cat #G7281]. […] After incubation, the beads were washed three times with 1 ml of Lysis buffer containing 500 mM NaCl and once with 0.5 ml of 10 mM Tris/HCl pH 8.0. […] The eluate is heated at 75° C. for 5 min and analysed by immuno-blotting using an anti-K63 linkage specific antibody (http://www.abcam.com/ubiquitin-linkage-specific-k63-epr8590-448-antibody-ab179434.html).
# Pure neuronal cultures derived from human iPS cells were treated with DMSO, DES-2877, DES-4114 and #32 at 5 μM for 12 hours. […] Ubiquitylation site identification by mass spectrometry was performed as described Kim et al., (Systematic and quantitative assessment of the ubiquitin-modified proteome. Mol Cell. 2011; 44:325-340). and Sarraf et al., (Landscape of the PARKIN-dependent ubiquitylome in response to mitochondrial depolarization. Nature. 2013; 496:372-376).
# [5] = tested on: aSyn-expressing yeast cells; test: Morphological analysis of aSyn-expressing yeast cells; type: cell-based; conditions: 10 uM, galactose induction five hours, FIG. 10
# Protocol: Raffinose cultures of α-syn expressing yeast cells were grown up to the logarithmic phase in raffinose. Cultures were induced with galactose for five hours in the presence or absence of the indication concentration of the compounds. In the present example, the identified compounds were present at a concentration of 10 uM. Cells were centrifuged, media discarded, and then fixed with 4% paraformaldehyde in 1×PBS for 1 hr. The fixed culture was centrifuged, and the pellet resuspended in 0.4% paraformaldehyde in 1×PBS and kept at 4° C.
# Carboxypeptidase Y (CPY) = test: Western blot of Carboxypeptidase Y (CPY) trafficking; type: cell-based, yeast
# Protocol: as §1
smiles,measurement,setting,value
C(=N\Nc1nc(Nc2ccccc2)nc(N2CCOCC2)n1)/c1ccncc1 [DES-4117],binding to Rsp5 (in words),Rsp5,did not show binding
C(=N\Nc1cc(N2CCOCC2)nc(Nc2ccccc2)n1)/c1ccncc1 [DES-5212],ratio of Sna3-GFP to free GFP,Sna3-GFP [1],lowest
same,Sna3-GFP trafficking to the vacuole (in words),Sna3-GFP [1],promote Sna3-GFP trafficking to the vacuole
same,Kd,Rsp5,0.68 ± 0.18 µM
Cc1ccc(C)c(Nc2nc(N/N=C/c3ccncc3)nc(N3CCOCC3)n2)c1 [DES-5204],Sna3-GFP trafficking to the vacuole (in words),Sna3-GFP [1],promote Sna3-GFP trafficking to the vacuole
CCCCc1ccc2nc(-c3ccc(-c4cc(Cl)cc(Cl)c4)o3)cc(C(=O)O)c2c1 [DES-2817],ratio of Sna3-GFP to free GFP,Sna3-GFP [1],lowest ratio
same,Sna3-GFP trafficking to the vacuole (in words),Sna3-GFP [1],promote Sna3-GFP trafficking to the vacuole
COc1cc(Cl)cc(/C=N/Nc2nc(Nc3ccc(C)c(Cl)c3)nc(N3CCOCC3)n2)c1O [DES-2866],ratio of Sna3-GFP to free GFP,Sna3-GFP [1],highest ratio
same,rescue of aSyn toxicity in yeast (in words),[2],also effective
COc1cc(Cl)cc(/C=N/Nc2nc(Nc3cc(C)ccc3C)nc(N3CCOCC3)n2)c1O [DES-2877],polyubiquitinated Sna3-GFP,Sna3-GFP [3],increase
same,K63 linkages in iPS derived human neurons,"[4]; 5 μM for 12 hours, FIG. 13A",modest increase
same,morphology: vesicular intermediates in yeast cells,[5],accumulation of vesicular intermediates
same,accumulation of CPY trafficking intermediates en route to the vacuole,Carboxypeptidase Y (CPY); FIG. 11D,increase
same,rescue of aSyn toxicity in yeast (in words),[2],most effective
same,Kd,Rsp5,1.7 ± 0.4 µM
COc1cc(/C=N/Nc2nc(Nc3cccc(C(F)(F)F)c3)nc(N3CCOCC3)n2)ccc1O [DES-2179],ratio of Sna3-GFP to free GFP,Sna3-GFP [1],lowest ratio
same,Sna3-GFP trafficking to the vacuole (in words),Sna3-GFP [1],promotes Sna3-GFP trafficking to the vacuole
same,K63-linked ubiquitination of proteins,"[4]; Nedd4-dependent manner, FIGS. 3A-3C",promote K63-linked ubiquitination of proteins
same,Cpy trafficking defect (block in vesicle trafficking),Carboxypeptidase Y (CPY); FIG. 1C,ameliorate this defect
same,concentration at which efficacy of rescue peaks,"[2]; dose-response, FIG. 1B, above the peak growth slows",around 10 μM
O=C(c1ccc(COc2ccc3ccccc3c2)o1)N1CCN(c2ncccn2)CC1 [DES-2926],ratio of Sna3-GFP to free GFP,Sna3-GFP [1],greatest
COc1cc(/C=N/Nc2nc(Nc3ccccc3)nc(N3CCOCC3)n2)ccc1OCC#N [DES-3001],Sna3-GFP trafficking to the vacuole (in words),Sna3-GFP [1],promote Sna3-GFP trafficking to the vacuole
same,binding to Rsp5 (in words),Rsp5,did not show binding
O=C(Nc1cccc(Cl)c1)c1coc(CN2CCN(c3ccc(F)cc3)CC2)n1 [DES-3035],Sna3-GFP trafficking to the vacuole (in words),Sna3-GFP [1],promote Sna3-GFP trafficking to the vacuole
O=C(c1ccc(COc2ccc(OC(F)(F)F)cc2)o1)N1CCC(O)(c2ccc(Cl)cc2)CC1 [DES-2854],Sna3-GFP trafficking to the vacuole (in words),Sna3-GFP [1],promote Sna3-GFP trafficking to the vacuole
Cc1ccc(C2CC(C(F)(F)F)n3nc(C(=O)N4CCN(c5ccccc5)CC4)cc3N2)cc1 (stereo not drawn) [DES-2960],Sna3-GFP trafficking to the vacuole (in words),Sna3-GFP [1],promotes Sna3-GFP trafficking to the vacuole better than DES-2866 and DES-2928
O=C(c1ccc(COc2ccc(OC(F)(F)F)cc2)o1)N1CCN(c2ccccc2)CC1 [DES-2184],rescue of aSyn toxicity in yeast (in words),[2],also effective
